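Values below derive from 48-hour exposures of cells grown in 96-well plates, with endpoints linearly interpolated between the two concentrations bracketing the appropriate inhibition level. At the GI50, growth is halved. TGI is the concentration that stops growth completely.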
Columns and labels:
Assay in all cases: growth of human tumour cells (NCI), 48 h
SF-268 CNS = test system: SF-268 CNS
SNB-19 CNS = test system: SNB-19 CNS
U251 CNS = test system: U251 CNS
M14 melanoma = test system: M14 melanoma
A549 NSCLC = test system: A549 NSCLC
OVCAR-4 ovarian = test system: OVCAR-4 ovarian
NCI-H460 lung = test system: NCI-H460 lung
UACC-257 melanoma = test system: UACC-257 melanoma

Structure (SMILES) | TGI (SF-268 CNS) [µM] | TGI (SNB-19 CNS) [µM] | TGI (U251 CNS) [µM] | TGI (M14 melanoma) [µM] | TGI (A549 NSCLC) [µM] | TGI (OVCAR-4 ovarian) [µM] | TGI (NCI-H460 lung) [µM] | TGI (UACC-257 melanoma) [µM] | GI50 (SF-268 CNS) [µM] | GI50 (NCI-H460 lung) [µM] | GI50 (UACC-257 melanoma) [µM] | GI50 (SNB-19 CNS) [µM] | GI50 (M14 melanoma) [µM] | GI50 (A549 NSCLC) [µM] | GI50 (OVCAR-4 ovarian) [µM] | GI50 (U251 CNS) [µM]
N=c1nnc(=O)c2c(s1)-n1ncc(C(=O)O)c1NN2 | > 100 | > 100 | > 100 | > 100 | > 100 | > 100 |  |  |  |  |  |  |  |  |  | 
CN(C)C(N)=NC#N | > 100 | > 100 | > 100 | > 100 | > 100 | > 100 | > 100 | > 100 |  |  |  |  |  |  |  | 
C(CCC[Te][Te]CCCCCCOC1CCCCO1)CCOC1CCCCO1 (stereo unspecified) | 41.2 | 29 | 24.5 | > 100 | 41.5 |  | 30 | 20.7 |  |  |  |  |  |  |  | 
CCC(=O)C(C)C1=Nc2nnc(CCCCCCCc3nnc4n3C(=O)C(C(C)C(=O)CC)=N4)n2C1=O (stereo unspecified) | > 100 | > 100 | > 100 | > 100 | > 100 |  | > 100 | > 100 |  |  |  |  |  |  |  | 
C(=N\OCc1ccccc1)/c1ncccc1C1OCCO1 | > 100 | > 100 | > 100 | > 100 | > 100 | > 100 | > 100 | > 100 |  |  |  |  |  |  |  | 
CC1(C)OC(=O)C=C([O-])O1.CC1(C)OC(=O)C=C([O-])O1.O=S(=O)([O-])c1ccc([O-])c2ncccc12.O=S(=O)([O-])c1ccc([O-])c2ncccc12.[Ti+4] | > 100 | > 100 |  | > 100 | > 100 | > 100 | > 100 | > 100 | 52 | 41.8 | > 100 | > 100 | 69.2 | 48.6 | > 100 | 
COc1ccc(C(N)=O)cc1N=NN(C)C | > 100 | > 100 | > 100 | > 100 | > 100 | > 100 | > 100 | > 100 |  |  |  |  |  |  |  | 
COc1cccc(C(=O)N2CCc3ccccc32)c1OC |  | > 100 | > 100 | > 100 | > 100 | > 100 | > 100 | > 100 |  |  |  |  |  |  |  | 
CCNC(=O)C#CC(=O)NCC | > 100 | > 100 | > 100 | > 100 | > 100 | > 100 | > 100 | > 100 | > 10 | > 10 | > 10 | > 10 | > 10 | > 10 | > 10 | > 10
